In US20230355597A1, “COMPOUNDS, COMPOSITIONS, AND METHODS FOR THE TREATMENT AND PREVENTION OF AVIAN PATHOGENIC E. COLI (APEC)” (OHIO STATE INNOVATION FOUNDATION, priority 2018, published 2023):
Where two headings read alike, the source gives them in different places. Marks after values point to notes of the source that are not given here.

Tests used:
[1] = system: APEC O78; assay: Antimicrobial susceptibility profile, CAMHB micro-dilution (CLSI); type: cell-based, avian pathogenic Escherichia coli (APEC); conditions: (R) = resistant
[2] = system: APEC O1; assay: as above; type: cell-based, avian pathogenic Escherichia coli (APEC); conditions: (R) = resistant
[3] = system: APEC O2; assay: as above; type: cell-based, avian pathogenic Escherichia coli (APEC); conditions: (R) = resistant
[4] = system: APEC O8; assay: as above; type: cell-based, avian pathogenic Escherichia coli (APEC); conditions: (R) = resistant
[5] = system: APEC O15; assay: as above; type: cell-based, avian pathogenic Escherichia coli (APEC); conditions: (R) = resistant
[6] = system: APEC O18; assay: as above; type: cell-based, avian pathogenic Escherichia coli (APEC); conditions: (R) = resistant
[7] = system: APEC O35; assay: as above; type: cell-based, avian pathogenic Escherichia coli (APEC); conditions: (R) = resistant
[8] = system: APEC O109; assay: as above; type: cell-based, avian pathogenic Escherichia coli (APEC); conditions: (R) = resistant
[9] = system: APEC O115; assay: as above; type: cell-based, avian pathogenic Escherichia coli (APEC); conditions: (R) = resistant
[10] = system: APEC O78-53; assay: as above; type: cell-based, avian pathogenic Escherichia coli (APEC); conditions: APEC O78-53, CAMHB micro-dilution; (R) = resistant
[11] = system: APEC O1-63; assay: as above; type: cell-based, avian pathogenic Escherichia coli (APEC); conditions: APEC O1-63, CAMHB micro-dilution; (R) = resistant
[12] = system: APEC O2-211; assay: as above; type: cell-based, avian pathogenic Escherichia coli (APEC); conditions: APEC O2-211, CAMHB micro-dilution; (R) = resistant
[13] = system: APEC O78; type: cell-based, avian pathogenic Escherichia coli (APEC); conditions: APEC O78, M63 media; cell prints MIC/MBC
[14] = system: APEC O1; type: cell-based, avian pathogenic Escherichia coli (APEC); conditions: APEC O1, M63 media; MIC/MBC
[15] = system: APEC O2; type: cell-based, avian pathogenic Escherichia coli (APEC); conditions: APEC O2, M63 media; MIC/MBC
[16] = system: APEC O8; type: cell-based, avian pathogenic Escherichia coli (APEC); conditions: APEC O8, M63 media; MIC/MBC
[17] = system: APEC O15; type: cell-based, avian pathogenic Escherichia coli (APEC); conditions: APEC O15, M63 media; MIC/MBC
[18] = system: APEC O18; type: cell-based, avian pathogenic Escherichia coli (APEC); conditions: APEC O18, M63 media; MIC/MBC
[19] = system: APEC O35; type: cell-based, avian pathogenic Escherichia coli (APEC); conditions: APEC O35, M63 media; MIC/MBC
[20] = system: APEC O115; type: cell-based, avian pathogenic Escherichia coli (APEC); conditions: APEC O115, M63 media; MIC/MBC
[21] = system: APEC O109; type: cell-based, avian pathogenic Escherichia coli (APEC); conditions: APEC O109, M63 media; MIC/MBC
[22] = system: APEC O78-53; type: cell-based, avian pathogenic Escherichia coli (APEC); conditions: APEC O78-53, M63 media; MIC/MBC
[23] = system: APEC O1-63; type: cell-based, avian pathogenic Escherichia coli (APEC); conditions: APEC O1-63, M63 media; MIC/MBC
[24] = system: APEC O2-211; type: cell-based, avian pathogenic Escherichia coli (APEC); conditions: APEC O2-211, M63 media; MIC/MBC
[25] = system: biofilm embedded APEC O78; assay: MBEC High-throughput assay; type: cell-based, avian pathogenic Escherichia coli (APEC); conditions: biofilm embedded APEC O78; superscript = multiple of MIC (footnote)
[26] = system: APEC O78; assay: Confocal microscopy bacterial cytological profiling; type: cell-based, avian pathogenic Escherichia coli (APEC); conditions: 2X MBC
Protocol: Confocal and scanning electron microscopy. Confocal microscopy was used for bacterial cytological profiling (BCP) to identify the cellular pathways targeted by SMs as described previously. […] After incubation, treated cultures were centrifuged, washed, and resuspended in 100 μL PBS. […] Cultures were then centrifuged, washed, and resuspended in PBS to 1⁄10th volume of the original cultures.

[27] = system: APEC O78; assay: Loss of 260/280 nm absorbing materials assay; type: cell-based, avian pathogenic Escherichia coli (APEC); conditions: 2X MBC, 1 h, *P<0.05 vs DMSO; for Absorbance 260: 260 nm absorbing material in supernatant; for Absorbance 280: 280 nm absorbing material in supernatant
[28] = Pilot experiment in chickens; type: in vivo, chicken
[29] = system: intracellular APEC O78 in Caco-2 cells; assay: Intracellular survival assay (cidal SMs); conditions: O78, Caco-2, 6 h treatment; superscript = multiple of MIC
[30] = system: intracellular APEC O78 in HD11 cells; assay: Intracellular survival assay (cidal SMs); conditions: O78, HD11, 6 h treatment; superscript = multiple of MIC
[31] = system: intracellular APEC O78 in THP-1 cells; assay: Intracellular survival assay (cidal SMs); conditions: O78, THP-1, 6 h treatment; superscript = multiple of MIC
[32] = system: intracellular APEC O2 in Caco-2 cells; assay: Intracellular survival assay (cidal SMs); conditions: O2, Caco-2, 6 h treatment; superscript = multiple of MIC
[33] = system: intracellular APEC O2 in HD11 cells; assay: Intracellular survival assay (cidal SMs); conditions: O2, HD11, 6 h treatment; superscript = multiple of MIC
[34] = system: intracellular APEC O2 in THP-1 cells; assay: Intracellular survival assay (cidal SMs); conditions: O2, THP-1, 6 h treatment; superscript = multiple of MIC
[35] = system: intracellular APEC O1 in Caco-2 cells; assay: Intracellular survival assay (cidal SMs); conditions: O1, Caco-2, 6 h treatment; superscript = multiple of MIC
[36] = system: intracellular APEC O1 in HD11 cells; assay: Intracellular survival assay (cidal SMs); conditions: O1, HD11, 6 h treatment; superscript = multiple of MIC
[37] = system: intracellular APEC O1 in THP-1 cells; assay: Intracellular survival assay (cidal SMs); conditions: O1, THP-1, 6 h treatment; superscript = multiple of MIC
[38] = system: Rif^r APEC O78; assay: In vivo efficacy of growth inhibitors in APEC infected broiler chickens

CC1(C)S[C@@H]2[C@H](NC(=O)[C@H](N)c3ccccc3)C(=O)N2[C@H]1C(=O)O [Ampicillin]
2 µg/mL: MIC [5] | MIC [7]
4 µg/mL: MIC [4] | MIC [6] | MIC [10] | MIC [11] | MIC [12]
>64 (R) µg/mL: MIC [1] | MIC [2] | MIC [3] | MIC [8] | MIC [9]

CCCCCCCCCCCCCCCCn1c[n+](C)c2ccccc21.[Br-] [SM5]
4.00*: Absorbance 260 [27]
100^d µM: SMs intracellular APEC clearance concentration [32] | SMs intracellular APEC clearance concentration [35] | SMs intracellular APEC clearance concentration [36] | SMs intracellular APEC clearance concentration [37]
12.5 µM: MIC [13] | MBC [14] | MIC [14] | MIC [15] | MBC [16] | MIC [16] | MBC [17] | MIC [17] | MBC [18] | MIC [18] | MIC [19] | MBC [20] | MIC [20] | MBC [21] | MIC [21] | MBC [22] | MIC [22] | MIC [23] | MBC [24] | MIC [24]
no negative impact: impact on chicken health and performance [28]
50^c µM: SMs intracellular APEC clearance concentration [29] | SMs intracellular APEC clearance concentration [30] | SMs intracellular APEC clearance concentration [31] | SMs intracellular APEC clearance concentration [33] | SMs intracellular APEC clearance concentration [34]
2.67*: Absorbance 280 [27]
25^c µM: MBEC [25]
25 µM: MBC [13] | MBC [15] | MBC [19] | MBC [23]
membrane disruptors: cytological profile (confocal, FM4-64 / SYTO-9) [26]

CCCCCCCCCCCCCCCC[n+]1ccn(CC#N)c1 [SM6]
12.5 µM: MIC [13] | MIC [14] | MBC [16] | MIC [16] | MIC [17] | MIC [18] | MIC [19] | MIC [20] | MBC [21] | MIC [21] | MIC [22] | MIC [23] | MBC [24] | MIC [24]
membrane disruptors: cytological profile (confocal, FM4-64 / SYTO-9) [26]
2.69*: Absorbance 280 [27]
100^d µM: SMs intracellular APEC clearance concentration [32] | SMs intracellular APEC clearance concentration [35] | SMs intracellular APEC clearance concentration [36] | SMs intracellular APEC clearance concentration [37]
12.5^a µM: MBEC [25]
42.86%: reduction of APEC induced mortality ([38]; oral gavage twice a day, 5 days, untreated mortality (58.34%) normalized to 100%)
25 µM: MBC [13] | MBC [14] | MBC [15] | MIC [15] | MBC [17] | MBC [18] | MBC [19] | MBC [20] | MBC [22] | MBC [23]
1.3 log CFU/g of tissues: reduction of APEC load, Heart ([38]; vs untreated control)
no negative impact: impact on chicken health and performance [28]
33.3%: reduction of APEC lesions severity (%), Lung (lung congestion) ([38]; untreated control = 100%)
3.99*: Absorbance 260 [27]
5.4: cumulative lesions score ([38]; liver, heart, lung and air-sacs, untreated 6.2)
1.2 log CFU/g of tissues: reduction of APEC load, Liver ([38]; vs untreated control) | reduction of APEC load, Lung ([38]; vs untreated control)
-41.2%: reduction of APEC lesions severity (%), Air-sacs (airsacculitis) ([38]; untreated control = 100%)
1.9 log CFU/g of tissues: reduction of APEC load, Kidney ([38]; vs untreated control)
222.18±54.01: Body weight gain (BWG) ([38]; weight of live chickens before necropsy minus weight before treatment)
1.4 logs: reduction of average APEC load in internal organs ([38]; average of liver, heart, lung and kidney, vs untreated control)
50^c µM: SMs intracellular APEC clearance concentration [29] | SMs intracellular APEC clearance concentration [30] | SMs intracellular APEC clearance concentration [31] | SMs intracellular APEC clearance concentration [33] | SMs intracellular APEC clearance concentration [34]
20%: reduction of APEC lesions severity (%), Heart (pericarditis) ([38]; untreated control = 100%)

CN(C)[C@@H]1C(=O)C(C(N)=O)=C(O)[C@@]2(O)C(=O)C3=C(O)c4c(O)cccc4[C@@](C)(O)[C@H]3C[C@@H]12 [Tetracycline]
32 (R) µg/mL: MIC [1]
1 µg/mL: MIC [7] | MIC [8]
2 µg/mL: MIC [6]
16 (R) µg/mL: MIC [11]
>64 (R) µg/mL: MIC [2] | MIC [3] | MIC [4] | MIC [5] | MIC [9] | MIC [10] | MIC [12]

Colistin
0.5 µg/mL: MIC [2] | MIC [3] | MIC [8] | MIC [10]
0.25 µg/mL: MIC [1]
1 µg/mL: MIC [4] | MIC [5] | MIC [6] | MIC [7] | MIC [9]
4 (R) µg/mL: MIC [11] | MIC [12]
